“And” between values parts separate entries of the source, which are not always exact repeats. Equal values may be shown once.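 Five concentrations, 48 hours, 96-well plates. GI50 marks 50% less growth. TGI: total growth inhibition.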
Experiments:
Test in all cases: NCI anticancer screen, dose series, 48 h
SN12C renal = system: SN12C renal
EKVX NSCLC = system: EKVX NSCLC
OVCAR-4 ovarian = system: OVCAR-4 ovarian
LOX IMVI melanoma = system: LOX IMVI melanoma
SW-620 colon = system: SW-620 colon
COLO 205 colon = system: COLO 205 colon
MOLT-4 leukemia = system: MOLT-4 leukemia
HCT-15 colon = system: HCT-15 colon
SK-MEL-2 melanoma = system: SK-MEL-2 melanoma
SF-539 CNS = system: SF-539 CNS

| Compound | TGI (SN12C renal) | TGI (EKVX NSCLC) | TGI (OVCAR-4 ovarian) | TGI (LOX IMVI melanoma) | TGI (SW-620 colon) | TGI (COLO 205 colon) | TGI (MOLT-4 leukemia) | TGI (HCT-15 colon) | TGI (SK-MEL-2 melanoma) | TGI (SF-539 CNS) | GI50 (EKVX NSCLC) | GI50 (LOX IMVI melanoma) | GI50 (SW-620 colon) | GI50 (COLO 205 colon) | GI50 (MOLT-4 leukemia) | GI50 (SK-MEL-2 melanoma) | GI50 (SF-539 CNS) | GI50 (SN12C renal) | GI50 (OVCAR-4 ovarian) | GI50 (HCT-15 colon) |
| --- | --- | --- | --- | --- | --- | --- | --- | --- | --- | --- | --- | --- | --- | --- | --- | --- | --- | --- | --- | --- |
| c1ccc(-c2cnc3nc4ccccc4nc3n2)cc1 | 31.5 µM | 16.5 µM | 19.5 µM | 20.1 µM | 18 µM | 17.6 µM | 43.1 µM | > 100 µM | 15.1 µM | 15.8 µM |  |  |  |  |  |  |  |  |  |  |
| O=[N+]([O-])c1ccc(NC(=S)N/N=C(\c2ccccc2)c2ccccn2)cc1 | 2.83 µM | 3.45 µM and 2.19 µM | 3.42 µM and 3.51 µM | 2.89 µM and 5.03 µM | 1.93 µM and 2.35 µM | 2.52 µM and 3.88 µM | > 20.5 µM | 2.71 µM | 4.44 µM and 3.69 µM | 2.9 µM and 3.33 µM | 1.87 µM | 1.37 µM | 0.0303 µM | 0.0423 µM | 0.00433 µM | 2.05 µM | 1.41 µM |  |  |  |
| COc1cc(N=Nc2cccc(S(N)(=O)=O)c2)c2ccccc2c1N | 26.1 µM | 27.4 µM | 27.8 µM | 18.1 µM | > 95.3 µM | 26.5 µM | 25.2 µM | 49.5 µM | 5.13 µM | 9.19 µM |  |  |  |  |  |  |  |  |  |  |
| Cn1c(O)c(N=NC(N)=S)c2ccccc21 | > 100 µM | > 100 µM | > 100 µM | > 100 µM | > 100 µM | > 100 µM | > 100 µM | > 100 µM | > 100 µM | > 100 µM | 2.04 µM | 58.5 µM | 54.6 µM | 94.9 µM | > 100 µM | > 100 µM | > 100 µM | > 100 µM | 82.1 µM | 44.6 µM |
| O=C(Nc1cccc([N+](=O)[O-])c1)c1cc2ccccc2cc1O | 7.78 µM | 8.2 µM | > 100 µM | 7.69 µM | 17 µM | 3.44 µM | 6.24 µM | 28.3 µM | 2.83 µM | 8.84 µM | 1.87 µM | 1.87 µM | 2.72 µM | 1.88 µM | 2.08 µM | 0.876 µM | 1.57 µM | 1.17 µM | 2.61 µM | 2.75 µM |
| N[C@H](C(=O)O)[C@@H](Cl)CC(=O)O | > 100 µM | > 100 µM | > 100 µM | > 100 µM | > 100 µM | > 100 µM | > 100 µM | > 100 µM | > 100 µM | > 100 µM |  |  |  |  |  |  |  |  |  |  |
| C[C@]12CC[C@H]3[C@@H](CCC4=C[C@@H](OC5OCC(OC6OC(CO)C(O)C(O)C6O)C(O)C5O)CC[C@@]43C=O)[C@@]1(O)CCC2C1=CC(=O)OC1 (stereo not given in full) | 2.01 µM | 1.64 µM | 1.07 µM | 2.96 µM | 9.23 µM | 3.25 µM | 0.346 µM | 1.76 µM | 5.93 µM | 1.68 µM |  |  |  |  |  |  |  |  |  |  |
| CN1N=Nc2c(C(F)(F)F)nn(-c3ccccc3)c2N(C)C1=O | > 100 µM | > 100 µM | > 100 µM | > 100 µM | > 100 µM | > 70.4 µM | > 45.3 µM | > 100 µM | > 100 µM | > 100 µM | > 100 µM | > 100 µM | > 100 µM | > 47.9 µM |  | > 100 µM | > 100 µM | > 100 µM | > 100 µM | > 100 µM |
| O=C(Nc1ccccc1C(=O)O)C(=O)C(C(=O)c1ccccc1-c1ccccc1)C1OC(=O)c2ccccc21 (stereo not given) | 39.1 µM | 58.6 µM | > 100 µM | 38.3 µM | 56.6 µM | 47.5 µM | > 100 µM | 30.6 µM | > 100 µM | 35.8 µM |  |  |  |  |  |  |  |  |  |  |
| N#Cc1ncc(N2C(=O)C3(CCC3)N(c3ccc(OC4CCNCC4)nc3)C2=S)cc1C(F)(F)F | 36 µM | 46.4 µM | 44.4 µM | 24 µM | 29.5 µM | 28.3 µM | 42 µM | 27.8 µM | 30.5 µM | 30 µM | 18 µM | 11.2 µM | 14.7 µM | 14.2 µM | 13.1 µM | 15.1 µM | 15.4 µM | 15.8 µM | 18.2 µM | 13.1 µM |
| C=C1C[C@@H]2[C@H](CC[C@]3(C)C(=O)CC[C@@H]23)[C@@]2(C)C=CC(=O)C=C12 | > 63.5 µM | > 100 µM | > 100 µM | 45.5 µM | > 100 µM | 41 µM | > 92.6 µM | 34.3 µM | > 28.3 µM | 74.4 µM | > 59.2 µM | 19.2 µM | 34.7 µM | 20.3 µM | 25.7 µM |  | 25.2 µM | 21 µM | 42.7 µM | 10 µM |
| Cc1c(N)nc(C(CC(N)=O)NCC(N)C(N)=O)nc1C(=O)NC(C(=O)NC(C)C(O)C(C)C(=O)NC(C(=O)NCCc1nc(-c2nc(C(=O)NCCCNCCCCN)cs2)cs1)C(C)O)C(OC1OC(CO)C(O)C(O)C1OC1OC(CO)C(O)C(OC(N)=O)C1O)c1cnc[nH]1 (stereo not given) | 27.6 µg/mL and > 10 µM | > 10 µM | > 10 µM | 3.47 µg/mL and 10.3 µg/mL and > 10 µM | > 10 µM | > 10 µM |  | > 10 µM | > 10 µM |  |  | 0.324 µg/mL and 0.149 µg/mL | 25.2 µg/mL | 8.7 µg/mL and 4.7 µg/mL | 4.22 µg/mL and 2.23 µg/mL |  | 0.21 µg/mL and 0.0169 µg/mL | 3.12 µg/mL and 2.58 µg/mL |  | 1.92 µg/mL |
| COc1cc(/C=C/c2cc(/C=C/c3ccc(O)c(OC)c3)[nH]c(=O)n2)ccc1O | > 100 µM | 72.8 µM | 16.8 µM | > 100 µM | 16.6 µM | 4.03 µM | 11.7 µM | > 100 µM | 6.7 µM | > 100 µM | 3.89 µM | 3.16 µM | 3.17 µM | 2.03 µM | 2.55 µM | 2.88 µM | 3.87 µM | 4.38 µM | 2.46 µM | 5.43 µM |
| O=c1[nH]cnc2nc(-c3ccc(N(CCCl)CCCl)cc3)[nH]c12 | > 100 µM | > 100 µM | > 100 µM | > 100 µM | > 100 µM | > 100 µM | > 100 µM | > 100 µM | > 100 µM | 63 µM | 11 µM | 1.75 µM | 6.46 µM | > 100 µM | > 100 µM | > 100 µM | 15.1 µM | 63.7 µM | 20.1 µM | 9.81 µM |
| CN/N=C(\C(=O)Nc1ccc([N+](=O)[O-])cc1[N+](=O)[O-])C1NC(=O)NC1=O (stereo not given) | > 100 µM | > 100 µM | > 100 µM | > 100 µM | > 100 µM | > 100 µM | > 100 µM | > 100 µM | > 100 µM | > 100 µM |  |  |  |  |  |  |  |  |  |  |
| CNC(C)Cc1ccc(O)cc1 (stereo not given) | > 100 µM | > 100 µM | > 100 µM | > 100 µM | > 100 µM | > 100 µM | > 100 µM | > 100 µM | > 100 µM | > 100 µM |  |  |  |  |  |  |  |  |  |  |
| C[C@H]1CC2=CC(=O)CC[C@]2(C)[C@H]2CC[C@@]3(C)[C@@H](CC[C@]3(C)O)[C@H]12 | > 100 µM | > 100 µM | > 100 µM | > 100 µM | > 100 µM | 36.1 µM | 50.6 µM | > 100 µM | 37.4 µM | > 100 µM | 11.3 µM | 29.2 µM | 35.8 µM | 15.8 µM | 19.3 µM | 15.4 µM | 32.5 µM | 41.6 µM | 38 µM | 28.2 µM |
| COc1ccc(/C=C/c2cnc3ccccc3n2)cc1OC | > 100 µM | > 100 µM | > 100 µM | > 100 µM | > 100 µM | > 100 µM | > 100 µM | > 100 µM | > 100 µM | > 100 µM |  |  |  |  |  |  |  |  |  |  |
| N#Cc1ccc2c(c1)C(=O)c1c-2n(CCCN=[N+]=[N-])c(=O)c2cc([N+](=O)[O-])ccc12 | > 50 µM | > 50 µM | > 50 µM | > 50 µM | > 50 µM | > 50 µM | 9 µM | > 50 µM | > 50 µM | > 50 µM | > 50 µM | 4.85 µM | 3.5 µM | > 50 µM | 1.8 µM | > 50 µM | > 50 µM | 47.2 µM | > 50 µM | > 50 µM |
| COc1cccc2ccc3c(c12)C(=O)OC31CCc2c(C)cccc21 (stereo not given) | > 46.4 µM | > 46.4 µM | > 46.4 µM | > 46.4 µM | > 46.4 µM | > 46.4 µM | 33.7 µM | > 46.4 µM | > 46.4 µM | > 100 µM |  |  |  |  |  |  |  |  |  |  |
| CS(=O)(=O)Nc1cc(-c2ccc3ncnc(Nc4cccc(Cl)c4F)c3c2)cnc1Cl | 41.2 µM | 6.27 µM | > 100 µM | 5.45 µM | 37.7 µM | 27.8 µM | 8.46 µM | 14.5 µM | 6.79 µM | 7.98 µM | 1.44 µM | 1.58 µM | 3.31 µM | 4.23 µM | 2.31 µM | 2.13 µM | 2.26 µM | 3.89 µM | 5.82 µM | 2.78 µM |
| CC[C@H](C)[C@H](NC(=O)c1nccn1C)C(=O)N(C)[C@H](C[C@@H](OC(C)=O)c1nc(C(=O)N[C@@H](Cc2ccccc2)C[C@H](C)C(=O)OC)cs1)C(C)C | > 33.3 µM | > 33.3 µM | > 33.3 µM | > 33.3 µM | > 33.3 µM | 4.11 µM | > 33.3 µM | > 33.3 µM | > 33.3 µM | 1.97 µM | 1.72 µM | 1.59 µM | 1.33 µM | 0.99 µM | 1.65 µM | 0.806 µM | 0.702 µM | 2.41 µM | 1.88 µM | 0.999 µM |
| CC(C)(F)C[C@H](N[C@@H](c1ccc(-c2ccc(S(C)(=O)=O)cc2)cc1)C(F)(F)F)C(=O)NC1(C#N)CC1 | 55 µM and > 100 µM | 55 µM | 42.8 µM and 47.4 µM | > 100 µM | > 100 µM | > 100 µM | > 100 µM | > 100 µM | 55 µM and > 100 µM | 31.8 µM and 53.2 µM | 30.7 µM | > 100 µM | > 100 µM | > 100 µM | > 100 µM | 13.4 µM and 38.6 µM | 11.8 µM and 23.1 µM | 14.8 µM and 42.6 µM | 9.47 µM and 19.5 µM | > 100 µM |
| COC(=O)C1=C(c2cc(OC)c(OC)c(OC)c2)O[C@H](c2ccc3c(c2)OCO3)[C@H]1COC(C)=O | 96.2 µM | > 100 µM | > 100 µM | > 100 µM | > 100 µM | 26.3 µM | 74 µM | > 100 µM | > 100 µM | 91.1 µM |  |  |  |  |  |  |  |  |  |  |
